Reference: US12491170B2, “Stable treprostinil prodrugs” (United Therapeutics Corporation, priority 2020, dated 2025)

How the values were obtained:
[1] = Stability in liver microsomes, rat
[2] = Stability in cryopreserved hepatocytes, human
[3] = Stability in cryopreserved hepatocytes, dog
[4] = molecular target: prostaglandin E2 (PGE2) receptor 2 (EP2) (Homo sapiens, UniProt P43116); test: EP2 receptor cAMP agonist assay (HEK293T cells); assay type: cell-based; conditions: summary of findings
How it was run: (§1)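 Agonist-mode cAMP accumulation in cells overexpressing the human receptor (DP1 and EP2 in HEK293T, IP in CHO-K1). Compounds were added at varying concentrations with 0.1% DMSO for 20 min at 37 °C, then cAMP was read by TR-FRET. Dose-responses were fitted to variable-slope sigmoidal curves.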

[5] = molecular target: T1, prostaglandin D2 (PGD2) receptor 1 (DP1) (Homo sapiens, UniProt Q13258); test: DP1 receptor cAMP agonist assay (HEK293T cells); assay type: cell-based; conditions: summary of findings
T1 sequence (Q13258 1-359): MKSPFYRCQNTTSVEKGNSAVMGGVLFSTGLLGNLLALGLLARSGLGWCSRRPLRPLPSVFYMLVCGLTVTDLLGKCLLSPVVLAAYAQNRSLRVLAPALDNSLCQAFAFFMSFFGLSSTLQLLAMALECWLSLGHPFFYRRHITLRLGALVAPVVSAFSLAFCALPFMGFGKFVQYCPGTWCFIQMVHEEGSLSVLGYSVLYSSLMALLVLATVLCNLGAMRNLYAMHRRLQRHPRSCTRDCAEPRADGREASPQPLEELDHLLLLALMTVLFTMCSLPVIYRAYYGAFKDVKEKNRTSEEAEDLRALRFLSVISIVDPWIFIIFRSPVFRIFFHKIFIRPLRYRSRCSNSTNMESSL
How it was run: as §1

prostaglandin E2 (PGE2) receptor 2 (EP2), sequence (P43116 whole entry): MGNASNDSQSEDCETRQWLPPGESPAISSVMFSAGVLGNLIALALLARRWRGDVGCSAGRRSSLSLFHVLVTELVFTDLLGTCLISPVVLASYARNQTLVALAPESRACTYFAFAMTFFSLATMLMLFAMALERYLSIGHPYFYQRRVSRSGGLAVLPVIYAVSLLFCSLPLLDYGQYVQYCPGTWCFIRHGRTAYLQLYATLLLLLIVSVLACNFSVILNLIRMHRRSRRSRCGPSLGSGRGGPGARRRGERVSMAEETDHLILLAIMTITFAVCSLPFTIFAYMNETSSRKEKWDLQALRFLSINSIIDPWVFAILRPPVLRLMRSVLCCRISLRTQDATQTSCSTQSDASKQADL

Substance: treprostinil diacetate [Prodrug LXXII]
- Trep Concentration 0 min [1]: 0.0413 µM
- Trep Concentration 10 min [1]: 0.095 µM
- Trep Concentration 20 min [1]: 0.182 µM
- Trep Concentration 30 min [1]: 0.19 µM
- Trep Concentration 60 min [1]: 0.216 µM
- Treprostinil Concentration 0 min [1]: 0.0413 µM
- Treprostinil Concentration 15 min [1]: 0.095 µM
- Treprostinil Concentration 30 min [1]: 0.182 µM
- Treprostinil Concentration 60 min [1]: 0.19 µM
- Treprostinil Concentration 120 min [1]: 0.216 µM
- CLint, calculated (in parentheses) ([1]; microsomes): 0.144 mL/min/mg protein
- Half-life, calculated (in parentheses) ([1]; microsomes): 9.65 min
- AUC Mono (treprostinil formed) ([1]; rat): 10.0 µmol·min/L
- CLint ([1]; rat, microsomes): > 0.139 mL/min/mg protein
- Half-life ([1]; rat, microsomes): < 10 min
- Trep Concentration (μM) 0 min [2]: 0.00458 µM
- Trep Concentration (μM) 15 min [2]: 0.562 µM
- Trep Concentration (μM) 30 min [2]: 0.491 µM
- Trep Concentration (μM) 60 min [2]: 0.433 µM
- Treprostinil Concentration 0 min [2]: 0.00458 µM
- CLint, calculated (in parentheses) ([2]; hepatocytes): 0.276 mL/min/mg protein
- Half-life, calculated (in parentheses) ([2]; hepatocytes): 1.67 min
- AUC ([2]; human): 49.92 µmol·min/L
- Mono AUC (treprostinil formed) ([2]; human): 49.9 µmol·min/L
- CLint ([2]; human, hepatocytes): > 0.0308 mL/min/mg protein
- Half-life ([2]; human, hepatocytes): < 15 min
- Trep Concentration (μM) 0 min [3]: 0.0636 µM
- Trep Concentration (μM) 30 min [3]: 0.541 µM
- Trep Concentration (μM) 60 min [3]: 0.465 µM
- Trep Concentration (μM) 120 min [3]: 0.401 µM
- Treprostinil Concentration 15 min [3]: 0.671 µM
- Treprostinil Concentration 120 min [3]: 0.401 µM
- AUC ([3]; dog): 55.67 µmol·min/L
- Mono AUC (treprostinil formed) ([3]; dog): 55.7 µmol·min/L
- CLint ([3]; dog, hepatocytes): >0.0308 mL/min/mg protein
- Half-life ([3]; dog, hepatocytes): <15 min
- Activity at the EP2 receptor compared to treprostinil [4]: non-traditional dose response curve
- Activity at the DP1 receptor compared to treprostinil [5]: several hundred-fold less active
